In one data set the test system is human ECs. As to the kind of experiment: CellTiter-Glo luminescent cell viability assay, ECs. It counts as cell-based. As to conditions: 200 nM. The source says: For human SMCs, cell densities ranging from about 1,000 cells per well to about 5,000 cells per well were aliquoted into 96-well plates and cultured in the SmGM-2 medium (Lonza CC-3182) with 5% serum.
This robust well-to-well consistency achieved by our experimental system is better reflected by a Z′ value of 0.63. […] See, e.g., Tomasini-Johansson et al., J. Intl. Soc. Matrix Biol. (2012); Zhang et al., J. Biomol. Screening 4:67-73 (1999); Patel et al., PloS One 7:e36594 (2012). In parallel experiments, a CellTiter-Glo® luminescent cell viability assay (Cat. #7570, Promega), which quantifies ATP levels in cell lysates, was evaluated as an additional and more sensitive orthologous assay for cell number. Sachsenmeier et al., PLoS One 17:993-8 (2012). Using the CellTiter-Glo® assay, Rapamycin which is used in drug-eluting stents at 200 nM produced >50% inhibition of both human SMCs and ECs with Z′ values of 0.56 to 0.75 respectively (FIG. 2). In addition, CellTiter-Glo® assays using resveratrol for both SMCs and ECs also produced high Z′ values (>0.7) (data not shown). Curve fitting was performed with the Prism software (GraphPad).
In general terms: In ATP-based viability assays light output follows the ATP content of the culture.

For the next data set, the system named is human SMCs. As to the kind of experiment: CellTiter-Glo luminescent cell viability assay, SMCs. In kind it is cell-based. As to conditions: 200 nM. The method, then:
Freshly collected HuAoSMCs (passage 5) were counted ([…]) by Cellometer AutoT4 (Nexelon Bioscience), and dispensed using Microflo Select (BioTek) to a final density of 2700 cells/[…]/well in the SmGM-2 medium in a 96-well plate. After a 24 hour incubation to allow cell attachment, […] of DMSO (vehicle) or […] of resveratrol (a known SMC growth inhibitor) stock in DMSO was robotically transferred using Biomek FX (Beckman) from a resveratrol stock plate into cell culture (final […] resveratrol). DMSO and resveratrol were added into alternate columns of wells (8 wells per column). Cell growth/proliferation was monitored by reading fluorescence from the AlamarBlue® cell viability reagent (Invitrogen). See Antczak et al., J. Biomol. […] After incubation with resveratrol for 72 hours, AlamarBlue reagent was added using Matrix Hydra (Thermo-Fisher) and incubated with cells for another 24 hours, and fluorescence was then determined using a Safir2 plate reader (Tecan, excitation/fluorescence: 530 nm/590 nm, bandwidth: 15 nm). The data from 40 wells of vehicle and 40 wells of resveratrol treatments were analyzed for assessment of well-well consistency in the assay. […] It was determined that reading Alamar Blue fluorescence 24 hours after incubation reduced variance compared to reading after shorter incubation (e.g., 4 hours). […]

In data set [1] the test system is primary human aortic smooth muscle cells (HuAoSMCs). As to the kind of experiment: AlamarBlue cell viability assay of HuAoSMC proliferation (automated HTS). In kind it is cell-based. The source says: Alamar Blue was purchased from Invitrogen (Carlsbad, Calif.). Cell Titer Glo was from Promega (Madison, Wis.). Primary human aortic smooth muscle cells (HuAoSMCs) and primary human aortic endothelial cells (HuAoECs) at passage 3 were purchased from Lonza; their respective optimal culture media (SmGM-2 and EGM-2) were from the same commercial source. Cells were used at passage 5 after expansion. Trypsin/EDTA solution was from Clonetics (Walkersville, Md.); and DPBS was from Gibco (Invitrogen, Carlsbad, Calif.). Microtiter tissue 96-well culture plates with transparent flat-bottoms and black-walled sides were from Costar (Corning, N.Y.). Resveratrol and idarubicin were products of Sigma-Aldrich (St. Louis, Mo.). […]
Freshly collected HuAoSMCs (passage 5) were counted ([…]) by Cellometer AutoT4 (Nexelon Bioscience), and dispensed using Microflo Select (BioTek) to a final density of 2700 cells/[…]/well in the SmGM-2 medium in a 96-well plate. […] Cell growth/proliferation was monitored by reading fluorescence from the AlamarBlue® cell viability reagent (Invitrogen). […] After incubation with resveratrol for 72 hours, AlamarBlue reagent was added using Matrix Hydra (Thermo-Fisher) and incubated with cells for another 24 hours, and fluorescence was then determined using a Safir2 plate reader (Tecan, excitation/fluorescence: 530 nm/590 nm, bandwidth: 15 nm). […]
For orientation: The colour change of resazurin is a common sign of viable cells or microbes.

Data set [2] deals with balloon-injured rat carotid arteries. As to the kind of experiment: Rat carotid balloon angioplasty model, perivascular drug delivery in pluronic gel. In kind it is in vivo, Male Sprague-Dawley rats. On the procedure: Balloon injury of the left common carotid artery was performed in Male Sprague-Dawley rats (300-350 g) according to the method described previously (Kundi et al., Cardiovasc Res. 84(2):326-35 (2009). Briefly, after induction of anesthesia with isoflurane, a 2F balloon catheter was inserted through the left external carotid artery into the common carotid and insufflated three times at 2 atm of pressure. The external carotid artery was then ligated, and blood flow was resumed through the common and internal carotid arteries. For perivascular drug delivery, resveratrol (500 μg) or halofuginone (30 μg) or DMSO dissolved in 200 μL of 25% F127 pluronic gel (Sigma-Aldrich) in PBS was evenly applied, immediately after reestablishment of flow, around the injured segment of the carotid artery (5 animals in each group). The pluronic gel is a biodegradable polymer that is soluble in water at 4° C. but becomes a gel when in contact with tissues at 37° C. (Ji et al., Circ. Res. 100:1579-88 (2007)). Rats were euthanized 14 days after injury, and the common carotid arteries were collected and fixed in 4% paraformaldehyde overnight for embedding in paraffin.
For morphometric analysis of intimal hyperplasia, ten evenly spaced sections through each injured carotid artery were stained using routine hematoxylin and eosin (H&E) and images were collected with light microscopy. Intimal and medial areas and circumference were determined by measuring the internal elastic lamina (IEE) and external elastic lamina (EEL) for each section using the ImageJ software (National Institutes of Health). Kundi et al., Cardiovasc. Res. 84:326-35 (2009); Kingston et al., Circulation 108:2819-25 (2003). The difference in intimal hyperplasia between the compound treatment group and the control group was analyzed with the Student t-test (P<0.05).
To mark endothelial cells, immunohistochemistry using an anti-CD31 antibody was performed on rat carotid sections based on our published methods. Suwanabol et al., Am J Physiol Heart Circ Physiol. 302:H2211-19 (2012); Kundi et al., Cardiovasc. Res. 84:326-35 (2009); Si et al., Arterioscler. Thromb. Vasc. Biol. 32:943-54 (2012). Briefly, the carotid sections were incubated with the anti-CD31 antibody (Santa Cruz Biotechnology) overnight at 4° C., followed by rhodamine-conjugated secondary antibody (DAKO) for 60 minutes at room temperature. Antibody controls included species-matched IgG. Images were taken with a fluorescence microscope.
Balloon angioplasty was performed in the left common carotid artery of male Sprague-Dawley rats. Immediately after resuming the blood flow, idarubicin (110 μg) or DMSO control dissolved in 300 μL of 25% F127 pluronic gel was applied around the injured artery. At 14 days after injury, arteries were collected and cross-sections were prepared and H&E stained. Intimal and medial areas, and circumference were determined by measuring the internal elastic lamina (IEE) and external elastic lamina (EEL) for each section using the ImageJ software. The difference in intimal hyperplasia (ratio of intima to media) between the idarubicin treatment group and the control group was analyzed with the Student t-test (P<0.05). Immunostaining of CD31, an endothelial cell marker, was performed on the sections to assess re-endothelialization.
Using the carotid artery sections collected on day 14 following angioplasty, we performed immunostaining for CD31 (FIGS. 10A-C), a commonly used marker for assessment of the endothelium, in a rat carotid injury model at 14 days. Briefly, a goat anti-CD31 primary antibody (R&D Sytems, 1:150) was incubated with the sections for 1 hour followed by an incubation with a biotinylated rabbit-anti-goat secondary antibody for 30 minutes. Immunostaining of CD31 was then visualized by using streptavidin-HRP and DAB.

For data set [3] the test system is unchanged. Described as above. In kind it is in vivo, Male Sprague-Dawley rats. This is another data set of the same source.
In data set [4] the test system is primary human aortic endothelial cells (HuAoECs). Nature of the data set: Counter-screen / dose response proliferation assay, HuAoECs.
In a further data set the test system is HuAoSMCs. As to the kind of experiment: Dose response proliferation assay, HuAoSMCs (96-well plate). In kind it is cell-based, human. The method, then: FIGS. 5A-B present comparative dose responses of HuAoSMCs and HuAoECs for idarubicin (A) and resveratol (B).
Cryo-protected frozen HuAoSMCs and HuAoECs (Lonza, passage 3) were thawed and cultured in their respective media that are optimized for cell growth by the manufacturer. HuAoSMCs (“SMCs”) were grown in the SmGM-2 medium containing 5% FBS, and HuAoECs (“ECs”) in the EGM-2 medium containing 2% FBS in a humidified incubator at 37° C. with 5% CO2.

The mark [5] stands for this setting: halofuginone 30 μg in 200 μL pluronic gel, 14 days.
The mark [6] stands for this setting: medium dose 0.5 mg/mL in pluronic gel.
Where [7] appears, read: relative to controls not contacted to idarubicin formulation.
The mark [8] stands for this setting: Example 5, local perivascular application, day 14 following angioplasty, 5 rats.
The mark [9] stands for this setting: idarubicin applied locally around injured artery, day 14.

Entries after “also recorded” stand apart in the source; their conditions may differ.

Consider 4 compounds from patent publication US20150011492A1, “ANTI-RESTENOSIS COMPOSITIONS AND METHODS” (WISCONSIN ALUMNI RESEARCH FOUNDATION, priority 2013, published 2015).

With `CO[C@H]1C[C@@H]2CC[C@@H](C)[C@@](O)(O2)C(=O)C(=O)N2CCCC[C@H]2C(=O)O[C@H]([C@H](C)C[C@@H]2CC[C@@H](O)[C@H](OC)C2)CC(=O)[C@H](C)/C=C(\C)[C@@H](O)[C@@H](OC)C(=O)[C@H](C)C[C@H](C)/C=C/C=C/C=C/1C` [Rapamycin], the inhibition at 0.2 µM with human ECs and in the data set with human SMCs was > 50% throughout.
On to `O=C(CC1NCCCC1O)Cn1cnc2cc(Br)c(Cl)cc2c1=O` (stereo not shown) [halofuginone], for which the “SMC growth in cell assays, in words” value in data set [1] is reported as “inhibit SMC growth”. Moreover, in data set [2] (setting [5]), the “effect on intimal hyperplasia, in words” value is given as “inhibits intimal hyperplasia” and the “effect on re-endothelialization (CD31 staining), in words” value is recorded as “not re-endothelialization; also recorded: not affected”. In data set [2] (halofuginone 30 μg in 200 μL pluronic gel, periadventitial, 14 days after injury), the “reduction of intimal hyperplasia (intima/media ratio)” value is reported as 74%.
With `CC(=O)[C@]1(O)Cc2c(O)c3c(c(O)c2[C@@H](O[C@H]2C[C@H](N)[C@H](O)[C@H](C)O2)C1)C(=O)c1ccccc1C3=O` [idarubicin, (7S,9S)-9-Acetyl-7-[(3-amino-2,3,6-trideoxy-α-L-lyxo-hexapyranosyl)oxy]-7,8,9,10-tetrahydro-6,9,11-trihydroxy-5,12-naphtacenedione], the results for the “cytotoxicity in surrounding tissues” value in data set [3] (highest dose 1 mg/mL in pluronic gel), in data set [3] (lowest dose 0.2 mg/mL in pluronic gel) and in data set [3] (setting [6]) were “slight cytotoxicity”, “without showing cytotoxicity” and “without showing cytotoxicity”, respectively. For the same compound, the “inhibition of intimal hyperplasia” value in data set [3] (lowest dose 0.2 mg/mL in pluronic gel (data not shown)) and in data set [3] (setting [6]) was > 70% throughout. In addition, the “SMC versus EC preference in counter-screen of EC proliferation, in words” value in data set [4] (counter-screen) is reported as “preferentially inhibits SMCs over ECs”. Further, in data set [4] (setting [7]), the “inhibition of endothelial cell proliferation” value was “less than 40%”. For the same compound, in data set [2] (setting [8]), the “increase of lumen size” value was 45%. Moreover, the “reduction of intimal hyperplasia” value is 80% in data set [2] (setting [8]) and 70% in data set [2] (local application, dose not stated at the place (Example 3)). The “effect on intimal hyperplasia (intima/media), in words” value in data set [2] (setting [9]) is “effectively reduced; also recorded: inhibitory effect; also recorded: inhibits intimal hyperplasia in a dose-dependent manner”. Further, the “effect on re-endothelialization (CD31 staining), in words” value in data set [2] (setting [9]) was “not affected; also recorded: absence of idarubicin's effect; also recorded: preserves and promotes re-endothelialization; also recorded: no substantial impairment; also recorded: no significant effect”. Moreover, in the data set on HuAoSMCs (approximately 50 nM to 1000 nM), the “SMC versus EC proliferation, dose response (in words)” value is given as “impedes SMC proliferation to a significantly greater extent than ECs; also recorded: differentially inhibited SMC proliferation with a lesser effect on ECs”. Further, the “inhibition of smooth muscle cell proliferation” value with HuAoSMCs (setting [7]) was “up to 80%”.
Regarding `Oc1ccc(C=Cc2cc(O)cc(O)c2)cc1` [resveratrol], in data set [1], the “SMC growth in cell assays, in words” value is “inhibit SMC growth”. Also, the “inhibition of the intima/media ratio” value in data set [2] (resveratrol 500 μg in 200 μL pluronic gel, perivascular, 14 days after injury) turned out to be 84%.
